Measured values: patent publication US20040044006A1, “Methods of use of quinolone compounds against pneumococcal and haemophilus bacteria” (priority 1999, published 2004)
Values after ≈ are worked out from the molar mass of the structure shown.

System: quinolone-resistant Haemophilus influenzae strains
Experiment: Microdilution MIC determination in HTM for quinolone-resistant Haemophilus influenzae strains
Type: cell-based
Description: Inocula were prepared from chocolate agar plates incubated for a full 24 hours by the direct colony suspension method as follows: In a tube of Mueller-Hinton broth (Difco), an organism suspension was made to a density of a 0.5 McFarland standard (1×10^8 CFU/ml). The latter inoculum was diluted in sterile saline such that final organisms suspensions in trays yielded colony counts of 3-8×10^5 CFU/ml. Frozen microdilution trays were obtained from MicroMedia Systems, Inc. (Cleveland, Ohio, USA). Each tray contained all antimicrobials prepared in freshly made HTM. Wells were inoculated with 100 μl suspensions and incubated in ambient air at 35° C. for 20-24 hours. The lowest drug concentration showing no growth was read as the MIC. Standard quality control strains, including H. influenzae ATCC 49766, H. influenzae ATCC 49247, Staphylococcus aureus ATCC 29213 and Escherichia coli ATCC 25922 were included with each run.

[1] = strain 1, GyrA S84→L, ParC S133→A N138→S, GyrB None, ParE None
[2] = strain 2, GyrA S84→F, ParC None, GyrB None, ParE S458→L
[3] = strain 3, GyrA S84→L, ParC S84→I, GyrB None, ParE None
[4] = strain 4, GyrA S84→F D88→N, ParC D83→N, GyrB None, ParE T459→S
[5] = strain 5, GyrA S84→Y, ParC E88→K, GyrB Q468→R, ParE G405→S
[6] = strain 6, GyrA S84→L A117→E, ParC S84→R, GyrB None, ParE D420→N
[7] = strain 7, GyrA S84→L A117→E, ParC S84→R, GyrB None, ParE D420→N
[8] = strain 8, GyrA S84→L A117→E, ParC S84→R, GyrB None, ParE D420→N
[9] = strain 9, GyrA S84→F D88→Y, ParC S84→R N138→S, GyrB None, ParE S458→A S474→N
[10] = strain 1, mutations S133-A N138-S, None, S84-L
[11] = strain 2, mutations NONE, S458-L, S84-F, None
[12] = strain 3, mutations S84-I, None, S84-L
[13] = strain 4, mutations D83-N, S458-S-T459, S84-F D88-N, Q468-R
[14] = strain 5, mutations E88-K, G405-S, S84-Y, None
[15] = strain 6, mutations S84-R, D420-N, S84-L A117-E, None
[16] = strain 7, mutations S84-R, D420-N, S84-L A117-E, None
[17] = strain 8, mutations S84-R, D420-N, S84-L A117-E, None
[18] = strain 9, mutations S84-R N138-S, S458-A S474-N, S84-F D88-Y, None

SMILES	MICs [1] [µg/mL]	MICs [2] [µg/mL]	MICs [3] [µg/mL]	MICs [4] [µg/mL]	MICs [5] [µg/mL]	MICs [6] [µg/mL]	MICs [7] [µg/mL]	MICs [8] [µg/mL]	MICs [9] [µg/mL]	MIC [10] [µg/mL]	MIC [11] [µg/mL]	MIC [12] [µg/mL]	MIC [13] [µg/mL]	MIC [14] [µg/mL]	MIC [15] [µg/mL]	MIC [16] [µg/mL]	MIC [17] [µg/mL]	MIC [18] [µg/mL]	other results
O=C(O)c1cn(C2CC2)c2cc(N3CCNCC3)c(F)cc2c1=O [Cip]	0.5	0.25	1	1	1	2	2	2	8										
O=C(O)c1cn(C2CC2)c2cc(N3CCNCC3)c(F)cc2c1=O [Cipro]																			MIC (Haemophilus influenzae, strain 1, mutations S133-A N138-S, None, S84-L): 0.5 µg/mL (≈ 1.51 µM); MIC (Haemophilus influenzae, strain 2, mutations NONE, S458-L, S84-F, None): 0.25 µg/mL (≈ 0.754 µM); MIC (Haemophilus influenzae, strain 3, mutations S84-I, None, S84-L): 1 µg/mL (≈ 3.02 µM); MIC (Haemophilus influenzae, strain 4, mutations D83-N, S458-S-T459, S84-F D88-N, Q468-R): 1 µg/mL (≈ 3.02 µM); MIC (Haemophilus influenzae, strain 5, mutations E88-K, G405-S, S84-Y, None): 1 µg/mL (≈ 3.02 µM); MIC (Haemophilus influenzae, strain 6, mutations S84-R, D420-N, S84-L A117-E, None): 2 µg/mL (≈ 6.04 µM); MIC (Haemophilus influenzae, strain 7, mutations S84-R, D420-N, S84-L A117-E, None): 2 µg/mL (≈ 6.04 µM); MIC (Haemophilus influenzae, strain 8, mutations S84-R, D420-N, S84-L A117-E, None): 2 µg/mL (≈ 6.04 µM); MIC (Haemophilus influenzae, strain 9, mutations S84-R N138-S, S458-A S474-N, S84-F D88-Y, None): 8 µg/mL (≈ 24.1 µM)
CO/N=C1\CN(c2nc3c(cc2F)c(=O)c(C(=O)O)cn3C2CC2)CC1CN (stereo not drawn) [Gemi]										0.03 (≈ 0.077 µM)	0.125 (≈ 0.321 µM)	0.125 (≈ 0.321 µM)	0.25 (≈ 0.642 µM)	0.25 (≈ 0.642 µM)	0.5 (≈ 1.28 µM)	0.5 (≈ 1.28 µM)	0.5 (≈ 1.28 µM)	1 (≈ 2.57 µM)	
Cc1c(F)c(N2CCNC(C)C2)cc2c1c(=O)c(C(=O)O)cn2C1CC1 (stereo not drawn) [Gre]	0.25	0.5	0.5	2	1	1	1	1	4										
Cc1c(F)c(N2CCNC(C)C2)cc2c1c(=O)c(C(=O)O)cn2C1CC1 (stereo not drawn) [Grepa]										0.25 (≈ 0.696 µM)	0.5 (≈ 1.39 µM)	0.5 (≈ 1.39 µM)	2 (≈ 5.56 µM)	1 (≈ 2.78 µM)	1 (≈ 2.78 µM)	1 (≈ 2.78 µM)	1 (≈ 2.78 µM)	4 (≈ 11.1 µM)	
C[C@H]1COc2c(N3CCN(C)CC3)c(F)cc3c(=O)c(C(=O)O)cn1c23 [Lev]	0.5	0.25	1	0.5	1	2	2	2	4										
